Measurements published in patent US20120214830A1, “BIOLOGICAL MARKERS PREDICTIVE OF ANTI-CANCER RESPONSE TO INSULIN-LIKE GROWTH FACTOR-1 RECEPTOR KINASE INHIBITORS IN HEPATOCELLULAR CARCINOMA” (OSI Pharmaceuticals, LLC, priority 2011, published 2012).
Read-outs that look alike come from different tables or passages of the source.

How the values were obtained:
JHH-5 = assay: Cell Titer-Glo proliferation assay, 72 h; format: cell-based; conditions: Homo sapiens, JHH-5 cells
Experimental: (§1) Cell lines: Twenty-one HCC cell lines were purchased from either ATCC (HepG2, Hep3B, PLC/PRF/5, SK-Hepl, SNU-182, SNU-387, SNU-398, SNU-423, SNU-449, SNU-475) or Health Science Research Resources Bank (Japan) (HUH-1, HUH-6, HUH-7, HLE, HLF, JHH-1, JHH-2, JHH-4, JHH-5, JHH-6, JHH-7). All the cell lines were maintained in media as described by the vendors. For growth inhibition assays, cells were plated and allowed to proliferate for 24 hours. After 24 hours, cells had reached approximately 15% confluency, at which time serial dilutions of OSI-906 were added and the cells grown for a further 72 hours. Cell viability was assayed using the Cell Titer-Glo reagent (Promega Corp., Madison, Wis.). Proliferation Assay. Proliferation was assayed using Cell Titer Glo assays (Promega) and was determined 72 hours following dosing with OSI-906. The basis of the assay is a luminescent quantitation of ATP present in a cell culture plate well. In essence, the greater the number of viable cells in the well, the greater the level of ATP present. The assay utilizes a substrate that binds ATP to produce a luminescent signal, which can be read on a luminometer. Unless otherwise noted, the manufacturer's instructions were followed exactly. Briefly, on Day 1, cells were plated in […] of 10% serum-containing growth media at a density of 4000 cells/well in a white polystyrene 96 well assay plate. On day 2, cells were treated with 15 μl of 10× concentration of the IGF-1R inhibitor (e.g. OSI-906) or DMSO alone for a final well volume of 150 μl. After 72 h incubation with the inhibitor, the cells were assayed. Results were calculated as a fraction of the DMSO controlled cells.

HLE = assay: Cell Titer-Glo proliferation assay, 72 h; format: cell-based; conditions: Homo sapiens, HLE cells
Experimental: as §1

JHH-4 = assay: Cell Titer-Glo proliferation assay, 72 h; format: cell-based; conditions: Homo sapiens, JHH-4 cells
Experimental: as §1

JHH-6 = assay: Cell Titer-Glo proliferation assay, 72 h; format: cell-based; conditions: Homo sapiens, JHH-6 cells
Experimental: as §1

SNU-423 = assay: Cell Titer-Glo proliferation assay, 72 h; format: cell-based; conditions: Homo sapiens, SNU-423 cells
Experimental: as §1

PLC/PRF/5 = assay: Cell Titer-Glo proliferation assay, 72 h; format: cell-based; conditions: Homo sapiens, PLC/PRF/5 cells
Experimental: as §1

SNU-182 = assay: Cell Titer-Glo proliferation assay, 72 h; format: cell-based; conditions: Homo sapiens, SNU-182 cells
Experimental: as §1

Huh-7 = assay: Cell Titer-Glo proliferation assay, 72 h; format: cell-based; conditions: Homo sapiens, Huh-7 cells
Experimental: as §1

tumor xenograft = conditions: cited from earlier work

- EC50 (SNU-423; 72 h OSI-906): > 10 µM
- EC50 (SNU-182; 72 h OSI-906): > 10 µM
- EC50 (Huh-7; 72 h OSI-906): 0.37 µM
Structure (SMILES): C[C@]1(O)C[C@@H](c2nc(-c3ccc4ccc(-c5ccccc5)nc4c3)c3c(N)nccn32)C1 [OSI-906, cis-3-[8-amino-1-(2-phenyl-quinolin-7-yl)-imidazo[1,5-a]pyrazin-3-yl]-1-methyl-cyclobutanol]
- inhibition at 5 µM (JHH-5; 5 μM OSI-906, 72 h): 80%
- EC50 (JHH-5; 72 h OSI-906): 0.19 µM
- inhibition at 5 µM (HLE; 5 μM OSI-906, 72 h): < 40%
- EC50 (HLE; 72 h OSI-906): > 10 µM
- inhibition at 5 µM (JHH-4; 5 μM OSI-906, 72 h): < 40%
- EC50 (JHH-4; 72 h OSI-906): > 10 µM
- inhibition at 5 µM (JHH-6; 5 μM OSI-906, 72 h): < 40%
- EC50 (JHH-6; 72 h OSI-906): > 10 µM
- inhibition at 5 µM (SNU-423; 5 μM OSI-906, 72 h): < 40%
- inhibition at 5 µM (PLC/PRF/5; 5 μM OSI-906, 72 h): < 40%
- EC50 (PLC/PRF/5; 72 h OSI-906): > 10 µM
- inhibition at 5 µM (SNU-182; 5 μM OSI-906, 72 h): < 40%
- inhibition at 5 µM (Huh-7; 5 μM OSI-906, 72 h): 70%
- tumor growth inhibition (TGI) (tumor xenograft; xenografts of tumor cells with high sensitivity to OSI-906 in culture in vitro): high pencentage tumor growth inhibition
- tumor growth inhibition (TGI) (tumor xenograft; xenografts of tumor cells with low sensitivity to OSI-906 in culture in vitro): only a low pencentage tumor growth inhibition
